From ChEMBL document CHEMBL5303766, “Data for DCP probe FHT-2344” (2022)

Tests used:
[1] = target: T1, Dual specificity tyrosine-phosphorylation-regulated kinase 2 (Homo sapiens) (UniProt Q92630); assay: DYRK2 SGC Tm panel (DSF); details: for ΔTm: Compound concentration 10.0 uM
T1 sequence (whole entry): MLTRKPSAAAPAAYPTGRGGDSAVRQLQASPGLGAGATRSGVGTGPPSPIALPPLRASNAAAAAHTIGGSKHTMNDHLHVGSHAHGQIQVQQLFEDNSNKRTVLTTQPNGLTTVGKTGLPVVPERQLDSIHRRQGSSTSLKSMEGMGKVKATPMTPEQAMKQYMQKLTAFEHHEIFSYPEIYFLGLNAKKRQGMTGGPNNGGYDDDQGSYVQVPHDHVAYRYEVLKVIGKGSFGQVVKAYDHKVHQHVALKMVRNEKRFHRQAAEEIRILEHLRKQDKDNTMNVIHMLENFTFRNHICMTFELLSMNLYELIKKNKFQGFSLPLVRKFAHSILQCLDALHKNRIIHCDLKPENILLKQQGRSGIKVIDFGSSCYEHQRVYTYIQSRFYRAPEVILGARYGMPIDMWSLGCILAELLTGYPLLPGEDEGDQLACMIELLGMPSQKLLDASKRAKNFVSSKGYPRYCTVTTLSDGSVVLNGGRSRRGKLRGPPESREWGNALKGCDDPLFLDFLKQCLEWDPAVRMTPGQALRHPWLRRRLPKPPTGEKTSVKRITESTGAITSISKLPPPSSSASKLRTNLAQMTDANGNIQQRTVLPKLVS

[2] = target: Cyclin-dependent kinase 2 (Homo sapiens) (UniProt P24941); assay: CDK2 SGC Tm panel (DSF); details: for ΔTm: Compound concentration 10.0 uM
[3] = target: 5-hydroxytryptamine receptor 7 (Homo sapiens) (UniProt P34969); details: Compound concentration 10.0 uM
[4] = target: Histamine H3 receptor (Homo sapiens) (UniProt Q9Y5N1); details: Compound concentration 10.0 uM
[5] = target: T2, Ribosyldihydronicotinamide dehydrogenase [quinone] (Homo sapiens) (UniProt P16083); assay: NQO2 SGC Tm panel (DSF); details: for ΔTm: Compound concentration 10.0 uM
T2 sequence (whole entry): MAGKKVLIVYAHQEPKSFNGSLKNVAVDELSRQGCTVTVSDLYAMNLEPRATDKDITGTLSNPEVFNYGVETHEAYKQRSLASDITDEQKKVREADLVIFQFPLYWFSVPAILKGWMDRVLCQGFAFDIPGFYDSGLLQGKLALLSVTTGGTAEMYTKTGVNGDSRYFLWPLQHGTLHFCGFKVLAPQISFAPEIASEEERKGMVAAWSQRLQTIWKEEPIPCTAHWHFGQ

[6] = target: T3, Aurora kinase A (Homo sapiens) (UniProt O14965); assay: STK6 SGC Tm panel (DSF); details: for ΔTm: Compound concentration 10.0 uM
T3 sequence (whole entry): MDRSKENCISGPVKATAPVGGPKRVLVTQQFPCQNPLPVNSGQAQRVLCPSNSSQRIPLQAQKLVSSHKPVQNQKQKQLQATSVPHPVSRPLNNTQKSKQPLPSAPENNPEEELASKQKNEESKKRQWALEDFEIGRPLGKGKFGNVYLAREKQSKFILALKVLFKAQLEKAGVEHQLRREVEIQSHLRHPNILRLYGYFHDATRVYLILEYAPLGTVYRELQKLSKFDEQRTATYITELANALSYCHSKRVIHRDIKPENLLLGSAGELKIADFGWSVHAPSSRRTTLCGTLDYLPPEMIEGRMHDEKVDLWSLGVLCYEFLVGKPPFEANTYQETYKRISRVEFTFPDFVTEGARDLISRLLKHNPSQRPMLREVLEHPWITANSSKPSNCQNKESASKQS

[7] = target: 5-hydroxytryptamine receptor 2B (Homo sapiens, UniProt P41595); details: Compound concentration 10.0 uM
[8] = target: T4, Serine/threonine-protein kinase ULK3 (Homo sapiens) (UniProt Q6PHR2); assay: ULK3 SGC Tm panel (DSF); details: for ΔTm: Compound concentration 10.0 uM
T4 sequence (whole entry): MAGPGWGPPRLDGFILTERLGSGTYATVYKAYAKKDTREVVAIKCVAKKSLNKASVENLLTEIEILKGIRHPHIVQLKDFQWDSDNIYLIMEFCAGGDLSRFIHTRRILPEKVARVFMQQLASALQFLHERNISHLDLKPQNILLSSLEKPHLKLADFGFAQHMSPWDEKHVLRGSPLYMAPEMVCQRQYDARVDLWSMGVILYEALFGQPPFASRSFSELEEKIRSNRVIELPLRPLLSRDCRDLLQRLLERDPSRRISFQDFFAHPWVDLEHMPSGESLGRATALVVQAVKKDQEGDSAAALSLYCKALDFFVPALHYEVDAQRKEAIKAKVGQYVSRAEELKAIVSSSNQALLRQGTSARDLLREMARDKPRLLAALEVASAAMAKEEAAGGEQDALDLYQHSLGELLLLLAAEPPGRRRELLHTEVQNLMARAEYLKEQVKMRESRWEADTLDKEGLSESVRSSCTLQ

[9] = target: 5-hydroxytryptamine receptor 2C (Homo sapiens) (UniProt P28335); details: Compound concentration 10.0 uM
[10] = target: Histamine H2 receptor (Homo sapiens) (UniProt P25021); details: Compound concentration 10.0 uM
[11] = target: Serine/threonine-protein kinase PAK 1 (Homo sapiens) (UniProt Q13153); assay: PAK1 SGC Tm panel (DSF); details: for ΔTm: Compound concentration 10.0 uM
[12] = target: Sigma intracellular receptor 2 (Homo sapiens) (UniProt Q5BJF2); details: Compound concentration 10.0 uM
[13] = target: T5, Mitogen-activated protein kinase 15 (Homo sapiens) (UniProt Q8TD08); assay: MAPK15 SGC Tm panel (DSF); details: for ΔTm: Compound concentration 10.0 uM
T5 sequence (whole entry): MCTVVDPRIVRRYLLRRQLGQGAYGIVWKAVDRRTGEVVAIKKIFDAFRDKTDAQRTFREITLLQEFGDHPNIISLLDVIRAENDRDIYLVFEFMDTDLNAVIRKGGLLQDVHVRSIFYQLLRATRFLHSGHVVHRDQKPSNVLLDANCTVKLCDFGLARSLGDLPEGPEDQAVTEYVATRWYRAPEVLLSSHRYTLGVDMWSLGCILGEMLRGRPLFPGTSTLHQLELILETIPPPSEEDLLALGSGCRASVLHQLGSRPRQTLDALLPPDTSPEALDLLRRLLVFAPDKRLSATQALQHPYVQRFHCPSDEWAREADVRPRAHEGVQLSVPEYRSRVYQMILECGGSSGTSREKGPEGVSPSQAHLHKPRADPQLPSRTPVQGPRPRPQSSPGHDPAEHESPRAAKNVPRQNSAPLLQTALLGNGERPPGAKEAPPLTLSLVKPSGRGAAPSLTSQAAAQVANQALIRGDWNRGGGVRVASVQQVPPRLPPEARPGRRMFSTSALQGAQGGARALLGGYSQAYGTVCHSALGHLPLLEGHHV

[14] = target: Muscarinic acetylcholine receptor M2 (Homo sapiens) (UniProt P08172); details: Compound concentration 10.0 uM
Muscarinic acetylcholine receptor M2 (Homo sapiens), sequence (P08172 whole entry): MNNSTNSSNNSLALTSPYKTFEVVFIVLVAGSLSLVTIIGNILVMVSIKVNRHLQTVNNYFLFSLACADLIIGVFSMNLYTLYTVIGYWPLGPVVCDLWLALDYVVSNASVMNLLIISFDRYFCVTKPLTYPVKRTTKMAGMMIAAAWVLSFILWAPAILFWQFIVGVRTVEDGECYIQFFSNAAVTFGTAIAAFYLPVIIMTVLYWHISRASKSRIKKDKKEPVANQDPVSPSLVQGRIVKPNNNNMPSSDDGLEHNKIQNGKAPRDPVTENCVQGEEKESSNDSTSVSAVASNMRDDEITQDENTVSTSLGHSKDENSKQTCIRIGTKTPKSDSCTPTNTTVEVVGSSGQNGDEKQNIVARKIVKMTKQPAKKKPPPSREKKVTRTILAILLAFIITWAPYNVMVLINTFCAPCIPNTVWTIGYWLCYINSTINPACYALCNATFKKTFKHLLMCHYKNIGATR

Serine/threonine-protein kinase PAK 1 (Homo sapiens), sequence (Q13153 whole entry): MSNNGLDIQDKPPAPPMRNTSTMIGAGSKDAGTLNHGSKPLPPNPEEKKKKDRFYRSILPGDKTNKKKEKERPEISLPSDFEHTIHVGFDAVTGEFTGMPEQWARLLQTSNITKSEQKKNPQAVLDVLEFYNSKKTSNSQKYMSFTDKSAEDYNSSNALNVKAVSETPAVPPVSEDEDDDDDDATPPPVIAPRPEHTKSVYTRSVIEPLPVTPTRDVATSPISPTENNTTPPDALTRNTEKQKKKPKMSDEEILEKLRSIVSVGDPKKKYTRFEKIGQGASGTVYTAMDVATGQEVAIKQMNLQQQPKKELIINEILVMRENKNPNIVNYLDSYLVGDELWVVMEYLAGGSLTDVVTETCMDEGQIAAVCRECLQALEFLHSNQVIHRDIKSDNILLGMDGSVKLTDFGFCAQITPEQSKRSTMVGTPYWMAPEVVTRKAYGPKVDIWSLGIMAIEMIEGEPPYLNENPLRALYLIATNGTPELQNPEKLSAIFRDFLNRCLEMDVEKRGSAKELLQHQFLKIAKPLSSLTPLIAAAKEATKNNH
5-hydroxytryptamine receptor 2B, sequence (P41595 whole entry): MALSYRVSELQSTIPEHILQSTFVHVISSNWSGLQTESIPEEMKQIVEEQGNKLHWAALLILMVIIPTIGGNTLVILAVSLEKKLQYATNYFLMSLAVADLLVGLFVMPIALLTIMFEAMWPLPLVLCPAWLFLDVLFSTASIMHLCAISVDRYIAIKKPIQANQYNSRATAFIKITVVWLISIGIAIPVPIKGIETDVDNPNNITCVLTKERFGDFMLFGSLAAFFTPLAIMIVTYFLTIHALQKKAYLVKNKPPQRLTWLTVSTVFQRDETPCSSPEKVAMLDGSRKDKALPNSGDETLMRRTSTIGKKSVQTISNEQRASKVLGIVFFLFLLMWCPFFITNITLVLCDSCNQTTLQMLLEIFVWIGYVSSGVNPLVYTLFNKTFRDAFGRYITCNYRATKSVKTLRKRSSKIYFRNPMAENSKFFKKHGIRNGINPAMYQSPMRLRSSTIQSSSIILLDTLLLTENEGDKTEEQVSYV
Histamine H2 receptor (Homo sapiens), sequence (P25021 whole entry): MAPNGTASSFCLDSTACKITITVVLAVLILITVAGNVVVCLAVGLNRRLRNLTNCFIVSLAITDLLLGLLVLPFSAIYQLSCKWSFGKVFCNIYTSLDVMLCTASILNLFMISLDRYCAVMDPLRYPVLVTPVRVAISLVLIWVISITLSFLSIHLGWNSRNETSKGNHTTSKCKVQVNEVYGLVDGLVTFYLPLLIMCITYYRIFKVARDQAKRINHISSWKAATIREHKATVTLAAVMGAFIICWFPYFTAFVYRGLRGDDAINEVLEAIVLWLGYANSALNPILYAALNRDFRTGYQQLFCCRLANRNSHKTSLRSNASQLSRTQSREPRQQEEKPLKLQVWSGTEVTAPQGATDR
Sigma intracellular receptor 2 (Homo sapiens), sequence (Q5BJF2 whole entry): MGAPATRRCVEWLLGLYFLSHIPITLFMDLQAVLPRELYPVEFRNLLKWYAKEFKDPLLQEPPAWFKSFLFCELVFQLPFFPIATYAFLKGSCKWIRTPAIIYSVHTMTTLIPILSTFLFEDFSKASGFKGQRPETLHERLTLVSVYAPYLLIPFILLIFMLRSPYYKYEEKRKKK
Histamine H3 receptor (Homo sapiens), sequence (Q9Y5N1 whole entry): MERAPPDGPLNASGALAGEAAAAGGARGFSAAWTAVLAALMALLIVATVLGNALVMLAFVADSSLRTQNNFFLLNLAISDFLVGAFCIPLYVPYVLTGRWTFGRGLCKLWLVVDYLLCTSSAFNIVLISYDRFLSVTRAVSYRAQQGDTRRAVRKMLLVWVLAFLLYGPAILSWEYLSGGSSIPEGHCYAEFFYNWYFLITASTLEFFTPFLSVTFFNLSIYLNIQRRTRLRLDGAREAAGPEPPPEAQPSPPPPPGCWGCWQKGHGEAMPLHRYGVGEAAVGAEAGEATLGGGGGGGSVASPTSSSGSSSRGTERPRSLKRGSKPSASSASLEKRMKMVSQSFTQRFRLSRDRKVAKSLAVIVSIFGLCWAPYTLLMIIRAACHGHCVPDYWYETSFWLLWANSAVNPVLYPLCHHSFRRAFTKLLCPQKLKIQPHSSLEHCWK
5-hydroxytryptamine receptor 7 (Homo sapiens), sequence (P34969 whole entry): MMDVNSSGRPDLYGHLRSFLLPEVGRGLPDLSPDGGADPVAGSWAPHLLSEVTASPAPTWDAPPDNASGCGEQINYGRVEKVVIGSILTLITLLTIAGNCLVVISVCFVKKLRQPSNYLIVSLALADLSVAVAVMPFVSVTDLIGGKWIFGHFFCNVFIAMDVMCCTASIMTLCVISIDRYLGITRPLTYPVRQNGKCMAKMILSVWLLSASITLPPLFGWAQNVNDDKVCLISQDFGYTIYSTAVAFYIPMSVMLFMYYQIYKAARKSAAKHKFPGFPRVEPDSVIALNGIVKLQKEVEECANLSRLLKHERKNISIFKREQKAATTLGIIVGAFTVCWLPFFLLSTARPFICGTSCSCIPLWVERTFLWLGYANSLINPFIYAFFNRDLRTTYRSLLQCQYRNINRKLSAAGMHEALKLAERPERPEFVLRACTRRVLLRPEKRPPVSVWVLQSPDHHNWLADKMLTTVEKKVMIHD
5-hydroxytryptamine receptor 2C (Homo sapiens), sequence (P28335 whole entry): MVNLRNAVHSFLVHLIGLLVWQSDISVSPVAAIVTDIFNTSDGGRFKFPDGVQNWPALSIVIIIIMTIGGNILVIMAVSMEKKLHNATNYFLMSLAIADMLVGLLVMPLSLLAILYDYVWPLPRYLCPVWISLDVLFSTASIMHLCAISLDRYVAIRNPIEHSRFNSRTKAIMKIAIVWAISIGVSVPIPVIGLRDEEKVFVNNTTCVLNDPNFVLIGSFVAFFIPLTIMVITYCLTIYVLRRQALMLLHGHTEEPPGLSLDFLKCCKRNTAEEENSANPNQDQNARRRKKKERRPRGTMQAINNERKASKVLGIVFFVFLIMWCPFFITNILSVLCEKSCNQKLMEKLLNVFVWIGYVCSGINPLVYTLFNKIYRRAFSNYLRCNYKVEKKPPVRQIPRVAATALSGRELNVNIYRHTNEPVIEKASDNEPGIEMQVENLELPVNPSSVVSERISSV

SMILES | delta Tm Staurosporine positive control [1] | ΔTm [1] | delta Tm Staurosporine positive control [2] | ΔTm [2] | inhibition [3] | inhibition [4] | delta Tm Staurosporine positive control [5] | ΔTm [5] | delta Tm Staurosporine positive control [6] | ΔTm [6] | inhibition [7] | delta Tm Staurosporine positive control [8] | ΔTm [8] | inhibition [9] | inhibition [10] | delta Tm Staurosporine positive control [11] | ΔTm [11] | inhibition [12] | delta Tm Staurosporine positive control [13] | ΔTm [13] | further results
C[C@H](NC(=O)c1cn(C2(C#N)CC2)cn1)C(=O)Nc1nc(-c2cccc(-c3ccn(C)n3)c2)cs1 | 6.46 | 1.82 | 15.5 | 0.352 | 23% | 0.34% | -2.91 | -0.586 | 16.5 | 0.205 | 86.8% | 18.2 | 0.155 | 18.3% | 4.24% | 7.66 | 0.443 | 2.43% | 15 | 1.05 | inhibition [14]: 16.3%
COC[C@H](NC(=O)c1ccn(S(C)(=O)=O)c1)C(=O)Nc1nc(-c2cccc(-c3ccn(C)n3)c2)cs1 | 6.46 | 1.45 | 15.5 | 0.601 | 3.33% | 7.45% | -2.91 | -0.772 | 16.5 | 0.943 | 48.2% | 18.2 | 0.301 | 14.2% | 22.6% | 7.66 | -0.233 | 5.91% | 15 | 0.94 | inhibition [14]: 6.19%
